Experimental data from patent publication US9446053B2, “Method for enhancing the secretion of GLP-1 using bitter compounds” (priority 2013, dated 2016).
Read-outs that look alike come from different tables or passages of the source.

Tests used:
[1] = tested on: intestinal endocrine cell line STC-1; experiment: Bitter compound stimulating the secretion of GLP-1 of STC-1 cells (GLP-1 ELISA normalised to MTT cell viability, vehicle = 1); assay type: cell-based, mouse; conditions: for fold induction at 1000 µM: 1 mM; for secretion of GLP-1, fold comparing to the vehicle group: p<0.05
Experimental: The embodiment of the present invention use a proglucagon-expression cell line STC-1 for study. The STC-1 cells are divided into the experimental groups and the control group. […] The secretion of GLP-1 is obtained by calculating the data gathered from the experiment using the standard curve after treating intestinal endocrine cell line STC-1 with different bitter compounds. Cell viability is measured by MTT assay after treating intestinal endocrine cell line STC-1 with different bitter compounds. The ratio of the amount of GLP-1 secreted to the cell viability in each experiment is the fold of that given bitter compound stimulating the secretion of GLP-1 of the intestinal endocrine cell line STC-1. […] Moreover, co-administering specific bitter compound, bitter taste receptor inhibitor or phospholipase C (PLC) inhibitor can further determine the bitter taste receptor corresponded to the bitter compound. The above mentioned testing methods are explained in detailed as follow:
For the embodiment of the ability of bitter compound stimulating secretion of GLP-1 of the intestinal endocrine cell line STC-1, the experiment procedure of the stimulation of GLP-1 secretion is referred in FIG. 1.
(§1) S3: The STC-1 cell line was treated by a bitter compound.
(§2) S4: Supernatant was collected via centrifugation and the remaining growth medium was removed after 1 hour and the amount of cell was measured by MTT assay.
S5: Supernatant from S4 was centrifuged again at 500×g for 5 minutes. After eliminating cell debris, the resulting supernatant was collected and stored at −80° C. for the analysis of GLP-1 secretion using commercial kit Millipore EGLP-35K. The sensitivity of the kit is between 2-100 pM. […] The result was shown in the amount of GLP-1 secreted per unit cell. To prevent over-discrepant results between batches and for the ease of statistic, each vehicle group was taken as 1, which is the comparison of result of each sample of that experiment.
(§3) Before measuring the amount of GLP-1 secreted, all reagents were placed on ice until fully dissolved. 10× washing buffer concentrate were diluted 10 times using distilled water; STC-1 cell line was dissolved using 1 mL distilled water and was diluted 200 times using phosphate buffered saline (PBS). 300 μL/well of 1× wash buffer were added and were placed for 5 minutes at room temperature then were poured out. 200 μL/well of assay buffer were added to NSB, while 100 μL/well of assay buffer were added to the remaining wells. 100 μL of Standards, QC or STC-1 cell line were then added to the wells accordingly, and then the 96-well plate was shaken moderately for an even mixture within each well. Plates were then being sealed allowing reaction to take place at 4° C. for 20-24 hours. Plates were then washed 5 times by 300 μL/well of 1× wash buffer and placed for 5 minutes. 200 μL/well of detection conjugate was added allowing reactions to take place at room temperature for 2 hours. It was then washed 3 times by 300 μL/well of 1× wash buffer. 200 μL/well of diluted STC-1 cell line was added allowing reaction to take place at room temperature and light-free environment for approximately 20 minutes. 50 μL/well of stop solution was added to stop the reaction at room temperature and light-free environment for 5 minutes. Finally, the concentration of GLP-1 was calculated using the data obtained and the standard curve.
Principle of MTT assay: Methylthiazolyldiphenyl-tetrazolium bromide (MTT), or 3-(4,5-cimethylthiazol-2-yl)-2,5-diphenyl tetrazolium bromide, is a yellow dye which can be reduced by dehydrogenase of mitochondria in living cells, forming an insoluble purple crystal, formazan. Thus, it is often used for the screening of the effect of materials upon the cell growth and proliferation.

[2] = tested on: intestinal endocrine cell line STC-1; experiment: GLP-1 secretion of STC-1 cells when allyl isothiocyanate and bitter taste receptor inhibitor probenecid are co-administered; assay type: cell-based, mouse
Text: The embodiment of the present invention use a proglucagon-expression cell line STC-1 for study. The STC-1 cells are divided into the experimental groups and the control group. The control groups are also called vehicle groups, which is the comparison of result of each experiment taken as 1. The secretion of GLP-1 is obtained by calculating the data gathered from the experiment using the standard curve after treating intestinal endocrine cell line STC-1 with different bitter compounds. Cell viability is measured by MTT assay after treating intestinal endocrine cell line STC-1 with different bitter compounds. The ratio of the amount of GLP-1 secreted to the cell viability in each experiment is the fold of that given bitter compound stimulating the secretion of GLP-1 of the intestinal endocrine cell line STC-1. By comparing experimental groups and vehicle groups, the difference between different bitter compounds in terms of their ability to stimulate the secretion of GLP-1 of the intestinal endocrine cell line STC-1 can be observed. Moreover, co-administering specific bitter compound, bitter taste receptor inhibitor or phospholipase C (PLC) inhibitor can further determine the bitter taste receptor corresponded to the bitter compound. The above mentioned testing methods are explained in detailed as follow:
S1: 6.39×10^4 cells were planted with 10% FBS DMEM (high glucose) in 48-well culture tray and were incubated for 48 hours.
S2: After 48 hours when the cell growth reached 85%, culture medium was changed into 10% FBS DMEM (low glucose) for a 3-hour starvation and then followed by the treatment of 0.2% BSA DEME (low glucose).
as §1, §2
S5: Supernatant from S4 was centrifuged again at 500×g for 5 minutes. After eliminating cell debris, the resulting supernatant was collected and stored at −80° C. for the analysis of GLP-1 secretion using commercial kit Millipore EGLP-35K. The sensitivity of the kit is between 2-100 pM. The amount of GLP-1 secreted of each vehicle group is between 50-150 pM according to the batch, therefore, it is advised that the supernatant being diluted 4 times before the analysis. The result was shown in the amount of GLP-1 secreted per unit cell. To prevent over-discrepant results between batches and for the ease of statistic, each vehicle group was taken as 1, which is the comparison of result of each sample of that experiment.
as §3, with “Finally, the concentration of GLP-1 was calculated using the data obtained and the standard curve.” left out

[3] = Mus musculus, STC-1 cells, 1 hour treatment, vehicle = 1, read-out: Fold (largest fold of GLP-1 secretion vs vehicle group)
[4] = Mus musculus, STC-1, 1 h, read-out: Fold (largest fold of GLP-1 secretion vs vehicle group)
[5] = STC-1 cells treated by 20 μg/mL
[6] = STC-1 cells treated by 50 μg/mL
[7] = STC-1 cells treated by 100 μg/mL
[8] = STC-1 cells treated by 200 μg/mL

With `CC1=CC(=O)[N-]S(=O)(=O)O1.[K+]` [Acesulfame K, reference compound] the “Fold (largest fold of GLP-1 secretion vs vehicle group)” value ([1]; STC-1 cells, 10 mM, 1 hour treatment, vehicle = 1) was “↑1.90 fold”.

For `C=CCN=C=S` [Allyl isothiocyanate], the fold induction at 10 µM ([1]; Mus musculus, STC-1 cells, 10 μM, 1 hour treatment, vehicle = 1, read-out: Fold (largest fold of GLP-1 secretion vs vehicle group)) was 4.06, the “secretion of GLP-1 comparing to the vehicle groups (in words)” value ([1]; STC-1 cells, 1.0 μM, 2.0 μM, 5.0 μM and 10.0 μM, dose-dependent manner) was “significantly increase the secretion of GLP-1” and the “Fold (largest fold of GLP-1 secretion vs vehicle group)” value ([1]; STC-1 cells, 10 μM, 1 hour treatment, vehicle = 1) was “↑4.06 fold”. For the same molecule, the “secretion of GLP-1, fold of the vehicle group” value ([2]; 0.5 mM of probenecid jointly applied, first of three allyl isothiocyanate concentrations, p<0.001) was 1.14 fold, the “secretion of GLP-1, fold of the vehicle group” value ([2]; 0.5 mM of probenecid jointly applied, second of three allyl isothiocyanate concentrations, p<0.001) was 1.40 fold and the “secretion of GLP-1, fold of the vehicle group” value ([2]; 0.5 mM of probenecid jointly applied, third of three allyl isothiocyanate concentrations, p<0.001) was 1.93 fold. For the same molecule, the “secretion of GLP-1, fold of the vehicle group” value ([2]; 1.0 mM of probenecid jointly applied, first of three allyl isothiocyanate concentrations, p<0.001) was 0.86 fold, the “secretion of GLP-1, fold of the vehicle group” value ([2]; 1.0 mM of probenecid jointly applied, second of three allyl isothiocyanate concentrations, p<0.001) was 1.07 fold and the “secretion of GLP-1, fold of the vehicle group” value ([2]; 1.0 mM of probenecid jointly applied, third of three allyl isothiocyanate concentrations, p<0.001) was 1.51 fold. For the same molecule, the “secretion of GLP-1, fold of the vehicle group” value ([2]; allyl isothiocyanate solely applied, first of three concentrations, p<0.05) was 1.44 fold, the “secretion of GLP-1, fold of the vehicle group” value ([2]; allyl isothiocyanate solely applied, second of three concentrations, p<0.05) was 2.05 fold and the “secretion of GLP-1, fold of the vehicle group” value ([2]; allyl isothiocyanate solely applied, third of three concentrations, p<0.05) was 3.44 fold.

`COc1cc2c(cc1OC)[C@@]13CCN4CC5=CCO[C@H]6CC(=O)N2[C@H]1[C@H]6[C@H]5C[C@H]43` [Brucine, reference compound] gave a fold induction at 50 µM ([1]; Mus musculus, STC-1 cells, 50 μM, 1 hour treatment, vehicle = 1, read-out: Fold (largest fold of GLP-1 secretion vs vehicle group)) of 1.54.

Work on `Cn1c(=O)c2c(ncn2C)n(C)c1=O` [Caffeine, reference compound] yielded a fold induction at 1000 µM [1, 3] of 1.72.

For `CCN(CC)CCCC(C)Nc1ccnc2cc(Cl)ccc12` (stereo not shown) [Chloroquine, reference compound], the fold induction at 5 µM [1, 4] was 1.78.

`CC(C)=C/C=C/[C@@H](C)[C@H]1CC[C@@]2(C)c3ccc4c(c3CC[C@]12C)CC[C@H](O)C4(C)C` [Compound of formula II, 19-nor-cucurbita-5(10),6,8,22(E),24-pentaen-3β-ol] was tested, and the “secretion of GLP-1, fold comparing to the vehicle group” value (from here on “secretion of GLP-1, fold comparing”) ([1]; STC-1 cells treated by 5 μg/mL) was 1.66 fold, the “secretion of GLP-1, fold comparing” value [1, 5] was 2.28 fold and the “secretion of GLP-1, fold comparing” value [1, 6] was 4.53 fold. The “secretion of GLP-1, fold comparing” value [1, 7] was 6.05 fold and the “secretion of GLP-1, fold comparing” value [1, 8] was 6.16 fold.

In the case of `CC(C)=CC(O)C[C@@H](C)[C@H]1CC[C@@]2(C)[C@@H]3C=C[C@@]45OC[C@]3(CC[C@]12C)C4CC[C@H](O)C5(C)C` (stereo partly drawn) [Compound of formula IV, 5β,19-epoxycucurbita-6,24-diene-3β,23ξ-diol], the “secretion of GLP-1, fold comparing” value ([1]; STC-1 cells treated by 5 μg/mL) is reported as 1.37 fold, the “secretion of GLP-1, fold comparing” value [1, 5] is reported as 1.49 fold and the “secretion of GLP-1, fold comparing” value [1, 6] is reported as 1.84 fold. For the same molecule, the “secretion of GLP-1, fold comparing” value [1, 7] was 2.76 fold and the “secretion of GLP-1, fold comparing” value [1, 8] was 3.68 fold.

In the case of `CC[N+](CC)(CC(=O)Nc1c(C)cccc1C)Cc1ccccc1` [Denatonium benzoate, reference compound], the fold induction at 2500 µM ([1]; Mus musculus, STC-1 cells, 2.5 mM, 1 hour treatment, vehicle = 1, read-out: Fold (largest fold of GLP-1 secretion vs vehicle group)) is reported as 2.97.

In the case of `CC1(C)O[C@H]2CC(=O)OC[C@]23[C@H]2CC[C@@]4(C)[C@H](c5ccoc5)OC(=O)[C@H]5O[C@]54[C@]2(C)C(=O)C[C@@H]13` [Limonin, reference compound], the fold induction at 200 µM ([1]; Mus musculus, STC-1 cells, 200 μM, 1 hour treatment, vehicle = 1, read-out: Fold (largest fold of GLP-1 secretion vs vehicle group)) is reported as 1.22.

`C=C[C@H]1C[N@@]2CC[C@H]1C[C@H]2[C@H](O)c1ccnc2ccc(OC)cc12` [Quinine, reference compound] was tested, and the fold induction at 80 µM ([1]; Mus musculus, STC-1 cells, 80 μM, 1 hour treatment, vehicle = 1, read-out: Fold (largest fold of GLP-1 secretion vs vehicle group)) was 1.9.

With `O=C1NS(=O)(=O)c2ccccc21` [Saccharin, reference compound] the fold induction at 1000 µM [1, 3] was 4.84.

With `O=C1C[C@@H]2OCC=C3CN4CC[C@]56c7ccccc7N1[C@H]5[C@H]2[C@H]3C[C@H]46` [Strychnine, reference compound] the fold induction at 50 µM [1, 4] was 1.91.
